# Reference: patent publication US12077503B2, “Substituted cyclic amides and their use as herbicides” (FMC CORPORATION, priority 2015, dated 2024)
# What was measured:
# Assay type in all cases: in vivo
# [1] = tested on: ryegrass, Italian (Italian ryegrass, Lolium multiflorum); assay: Test A postemergence; details: Lolium multiflorum, post-emergence, 240 h, Postemergence; for pest or weed control at 125 g/ha: 125 g ai/ha, visual rating about 10 d after treatment, read-out: Ryegrass, Italian plant response rating (0 to 100 scale); for pest or weed control at 500 g/ha: 500 g ai/ha, visual injury, 0 to 100 scale (0 no effect, 100 complete control), approx. 10 d, read-out: Plant response rating, Ryegrass, Italian
# How it was run: (§1)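 Visual injury, scored on a 0–100 scale relative to untreated controls, was recorded about 10 d after application. Treatments were a preemergence soil spray over planted seeds or a postemergence spray on plants at the one- to two-leaf stage, 2 to 10 cm tall, all in loam soil–sand blend in the greenhouse.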
# [2] = tested on: ragweed (common ragweed, Ambrosia elatior); assay: Test A postemergence; details: Ambrosia artemisiifolia, post-emergence, 240 h, Postemergence; for pest or weed control at 125 g/ha: 125 g ai/ha, visual rating about 10 d after treatment, read-out: Ragweed plant response rating (0 to 100 scale); for pest or weed control at 500 g/ha: 500 g ai/ha, visual injury, 0 to 100 scale (0 no effect, 100 complete control), approx. 10 d, read-out: Plant response rating, Ragweed
# How it was run: as §1
# corn (Zea mays) = assay: Test A postemergence; details: Zea mays, post-emergence, 240 h, Postemergence; for plant injury at 125 g/ha: 125 g ai/ha, visual rating about 10 d after treatment, read-out: Corn plant response rating (0 to 100 scale); for Corn plant response rating (crop injury, 0 = no effect, 100 = complete kill) at 500 g/ha: 500 g ai/ha, visual injury, 0 to 100 scale (0 no effect, 100 complete control), approx. 10 d
# How it was run: as §1
# [3] = tested on: blackgrass (Alopecurus myosuroides); assay: Test A postemergence; details: Alopecurus myosuroides, post-emergence, 240 h, Postemergence; for pest or weed control at 125 g/ha: 125 g ai/ha, visual rating about 10 d after treatment, read-out: Blackgrass plant response rating (0 to 100 scale); for pest or weed control at 500 g/ha: 500 g ai/ha, visual injury, 0 to 100 scale (0 no effect, 100 complete control), approx. 10 d, read-out: Plant response rating, Blackgrass
# How it was run: as §1
# [4] = tested on: barnyardgrass (Echinochloa crus-galli); assay: Test A postemergence; details: Echinochloa crus-galli, post-emergence, 240 h, Postemergence; for pest or weed control at 125 g/ha: 125 g ai/ha, visual rating about 10 d after treatment, read-out: Barnyardgrass plant response rating (0 to 100 scale, 0 no effect, 100 complete control); for pest or weed control at 500 g/ha: 500 g ai/ha, visual injury, 0 to 100 scale (0 no effect, 100 complete control), approx. 10 d, read-out: Plant response rating, Barnyardgrass
# How it was run: as §1
# [5] = tested on: giant foxtail (Setaria faberii); assay: Test A postemergence; details: Setaria faberi, post-emergence, 240 h, Postemergence; for pest or weed control at 125 g/ha: 125 g ai/ha, visual rating about 10 d after treatment, read-out: Foxtail, Giant plant response rating (0 to 100 scale); for pest or weed control at 500 g/ha: 500 g ai/ha, visual injury, 0 to 100 scale (0 no effect, 100 complete control), approx. 10 d, read-out: Plant response rating, Foxtail, Giant
# How it was run: as §1
# Kochia (Kochia scoparia) [6] = assay: Test A postemergence; details: Bassia scoparia, post-emergence, 240 h, Postemergence; for pest or weed control at 125 g/ha: 125 g ai/ha, visual rating about 10 d after treatment, read-out: Kochia plant response rating (0 to 100 scale); for pest or weed control at 500 g/ha: 500 g ai/ha, visual injury, 0 to 100 scale (0 no effect, 100 complete control), approx. 10 d, read-out: Plant response rating, Kochia
# How it was run: as §1
# [7] = tested on: wheat (Triticum aestivum); assay: Test A postemergence; details: Triticum aestivum, post-emergence, 240 h, Postemergence; for plant injury at 125 g/ha: 125 g ai/ha, visual rating about 10 d after treatment, read-out: Wheat plant response rating (0 to 100 scale); for plant injury at 500 g/ha: 500 g ai/ha, visual injury, 0 to 100 scale (0 no effect, 100 complete control), approx. 10 d, read-out: Plant response rating, Wheat
# How it was run: as §1
# [8] = tested on: pigweed (Amaranthus retroflexus); assay: Test A postemergence; details: Amaranthus retroflexus, post-emergence, 240 h, Postemergence; for pest or weed control at 125 g/ha: 125 g ai/ha, visual rating about 10 d after treatment, read-out: Pigweed plant response rating (0 to 100 scale); for pest or weed control at 500 g/ha: 500 g ai/ha, visual injury, 0 to 100 scale (0 no effect, 100 complete control), approx. 10 d, read-out: Plant response rating, Pigweed
# How it was run: as §1
# [9] = tested on: Galium (catchweed bedstraw, Galium aparine); assay: Test A postemergence; details: Galium, post-emergence, 240 h, Postemergence; for pest or weed control at 125 g/ha: 125 g ai/ha, visual rating about 10 d after treatment, read-out: Galium plant response rating (0 to 100 scale); for pest or weed control at 500 g/ha: 500 g ai/ha, visual injury, 0 to 100 scale (0 no effect, 100 complete control), approx. 10 d, read-out: Plant response rating, Galium
# How it was run: as §1
# [10] = tested on: ryegrass, Italian (Italian ryegrass, Lolium multiflorum); assay: Test A preemergence; details: Lolium multiflorum, pre-emergence, 240 h, preemergence, 0 to 100 scale where 0 is no effect and 100 is complete control, read-out: Ryegrass, Italian plant response rating; for pest or weed control at 125 g/ha: 125 g ai/ha, visual injury rating, approximately 10 d; for pest or weed control at 500 g/ha: 500 g ai/ha
# How it was run: as §1
# [11] = tested on: ragweed (common ragweed, Ambrosia elatior); assay: Test A preemergence; details: Ambrosia artemisiifolia, pre-emergence, 240 h, preemergence, 0 to 100 scale where 0 is no effect and 100 is complete control, read-out: Ragweed plant response rating; for pest or weed control at 125 g/ha: 125 g ai/ha, visual injury rating, approximately 10 d; for pest or weed control at 500 g/ha: 500 g ai/ha
# How it was run: as §1
# [12] = tested on: barnyardgrass (Echinochloa crus-galli); assay: Test A preemergence; details: Echinochloa crus-galli, pre-emergence, 240 h, preemergence, 0 to 100 scale where 0 is no effect and 100 is complete control, read-out: Barnyardgrass plant response rating; for pest or weed control at 125 g/ha: 125 g ai/ha, visual injury rating, approximately 10 d; for pest or weed control at 500 g/ha: 500 g ai/ha
# How it was run: as §1
# [13] = tested on: giant foxtail (Setaria faberii); assay: Test A preemergence; details: Setaria faberi, pre-emergence, 240 h, preemergence, 0 to 100 scale where 0 is no effect and 100 is complete control, read-out: Foxtail, Giant plant response rating; for pest or weed control at 125 g/ha: 125 g ai/ha, visual injury rating, approximately 10 d; for pest or weed control at 500 g/ha: 500 g ai/ha
# How it was run: as §1
# Kochia (Kochia scoparia) [14] = assay: Test A preemergence; details: Bassia scoparia, pre-emergence, 240 h, preemergence, 0 to 100 scale where 0 is no effect and 100 is complete control, read-out: Kochia plant response rating; for pest or weed control at 125 g/ha: 125 g ai/ha, visual injury rating, approximately 10 d; for pest or weed control at 500 g/ha: 500 g ai/ha
# How it was run: as §1
# [15] = tested on: pigweed (Amaranthus retroflexus); assay: Test A preemergence; details: Amaranthus retroflexus, pre-emergence, 240 h, preemergence, 0 to 100 scale where 0 is no effect and 100 is complete control, read-out: Pigweed plant response rating; for pest or weed control at 125 g/ha: 125 g ai/ha, visual injury rating, approximately 10 d; for pest or weed control at 500 g/ha: 500 g ai/ha
Structure (SMILES),pest or weed control at 125 g/ha [1] [%],pest or weed control at 500 g/ha [1] [%],pest or weed control at 125 g/ha [2] [%],pest or weed control at 500 g/ha [2] [%],plant injury at 125 g/ha (corn (Zea mays)) [%],"Corn plant response rating (crop injury, 0 = no effect, 100 = complete kill) at 500 g/ha (corn (Zea mays)) [%]",pest or weed control at 125 g/ha [3] [%],pest or weed control at 500 g/ha [3] [%],pest or weed control at 125 g/ha [4] [%],pest or weed control at 500 g/ha [4] [%],pest or weed control at 125 g/ha [5] [%],pest or weed control at 500 g/ha [5] [%],pest or weed control at 125 g/ha (Kochia (Kochia scoparia) [6]) [%],pest or weed control at 500 g/ha (Kochia (Kochia scoparia) [6]) [%],plant injury at 125 g/ha [7] [%],plant injury at 500 g/ha [7] [%],pest or weed control at 125 g/ha [8] [%],pest or weed control at 500 g/ha [8] [%],pest or weed control at 125 g/ha [9] [%],pest or weed control at 500 g/ha [9] [%],also measured
CSc1ccccc1NC(=O)[C@H]1C(=O)NC[C@@H]1c1cc(C)cc(F)c1 [Compound 1306],0,0,0,0,0,0,0,0,20,90,0,20,0,60,0,0,0,0,20,40,pest or weed control at 125 g/ha [10]: 0%; pest or weed control at 500 g/ha [10]: 0%; pest or weed control at 125 g/ha [11]: 40%; pest or weed control at 500 g/ha [11]: 60%; pest or weed control at 125 g/ha [12]: 60%; pest or weed control at 500 g/ha [12]: 90%; pest or weed control at 125 g/ha [13]: 30%; pest or weed control at 500 g/ha [13]: 90%; pest or weed control at 125 g/ha (Kochia (Kochia scoparia) [14]): 0%; pest or weed control at 500 g/ha (Kochia (Kochia scoparia) [14]): 70%; pest or weed control at 125 g/ha [15]: 0%; pest or weed control at 500 g/ha [15]: 0%
Cc1cc(F)cc([C@H]2CNC(=O)[C@@H]2C(=O)Nc2ccccc2S(C)(=O)=O)c1 [Compound 1307],0,0,0,0,0,0,0,0,40,90,0,20,0,40,0,0,0,0,30,40,pest or weed control at 125 g/ha [10]: 0%; pest or weed control at 500 g/ha [10]: 0%; pest or weed control at 500 g/ha [11]: 60%; pest or weed control at 125 g/ha [12]: 80%; pest or weed control at 500 g/ha [12]: 90%; pest or weed control at 125 g/ha [13]: 50%; pest or weed control at 500 g/ha [13]: 90%; pest or weed control at 125 g/ha (Kochia (Kochia scoparia) [14]): 20%; pest or weed control at 500 g/ha (Kochia (Kochia scoparia) [14]): 90%; pest or weed control at 125 g/ha [15]: 0%; pest or weed control at 500 g/ha [15]: 0%
Cc1cc(F)cc([C@H]2CNC(=O)[C@@H]2C(=O)Nc2cccc(F)c2C)c1 [Compound 1308],0,0,0,20,20,80,30,50,80,80,20,80,0,0,20,40,0,0,30,50,pest or weed control at 125 g/ha [10]: 0%; pest or weed control at 500 g/ha [10]: 0%; pest or weed control at 125 g/ha [11]: 0%; pest or weed control at 500 g/ha [11]: 70%; pest or weed control at 125 g/ha [12]: 90%; pest or weed control at 500 g/ha [12]: 90%; pest or weed control at 125 g/ha [13]: 90%; pest or weed control at 500 g/ha [13]: 90%; pest or weed control at 125 g/ha (Kochia (Kochia scoparia) [14]): 0%; pest or weed control at 500 g/ha (Kochia (Kochia scoparia) [14]): 50%; pest or weed control at 125 g/ha [15]: 0%; pest or weed control at 500 g/ha [15]: 20%
